Measurements from patent US20230233425A1, “USE OF VOLATILE COMPOSITIONS TO LIMIT OR ELIMINATE THE PERCEPTION OF MALODOR” (Firmenich SA, priority 2017, published 2023).
Marks after values point to notes of the source that are not given here.

How the values were obtained:
[1] = tested on: OR11A1, or the OR2M3 olfactory receptor; experiment: Geonol olfactory receptor antagonist cell-based screening, inhibitory dose-response vs geonol EC80; parameters: species or system human; conditions: geonol at EC80; for IC50: read-out: IC50
[2] = tested on: OR2W1 or the OR1A1 olfactory receptor; experiment: 1-octen-3-ol olfactory receptor antagonist cell-based dose-response vs 1-octen-3-ol EC80; conditions: for IC50: 1-octen-3-ol at EC80; for % Inhibition: maximum inhibition normalized to baseline agonist activity
Excerpt: Each cell line was screened with a volatile compound library for their inhibitory properties and potential 1-octen-3-ol smell inhibition.
Single concentration monitoring of the 1-octen-3-ol induced cell activity in the presence or absence of a test compound allowed for the identification of compounds with a putative suppression or inhibitory effect.

[3] = tested on: 1-octen-3-ol mushroom/earthy/fungal odor perception; experiment: Human sensory performance of test compounds with and without 1-octen-3-ol; format: in vivo; conditions: for % Mushroom/Earthy/Fungal Odor: Test Compound Only
[4] = tested on: geonol earthy/moss odor perception; experiment: Human sensory performance of test compounds with and without geonol; format: in vivo; conditions: for % Earthy/Moss Odor: Test Compound Only
Excerpt: Sensory Evaluation: Five 16 oz glass jars containing either REF (geonol only), geonol only control, antagonist only, mixture of geonol and isointense antagonist, or mixture of geonol and low intensity antagonist were presented to the panelists (last four samples were randomized across panelists). The panelists were asked to familiarize themselves with the earthy/moss odor quality from the REF jar first, then rate the pleasantness, earthy/moss odor intensity and overall odor intensity of the next four samples on a 0-10 linear scale. The inter-stimulus interval between the samples was two minutes to avoid adaptation. […]
The results are shown in Tables 16 and 17, and FIGS. 3 to 5.

[5] = tested on: geonol malodor (earthy/moss odor) perception; experiment: Sensory evaluation of geonol earthy/moss odor in iso-intense binary mixtures (glass jars); format: in vivo, human; conditions: iso-intense binary mixture
Excerpt: Sensory Evaluation: Five 16 oz glass jars containing either REF (geonol only), geonol only control, antagonist only, mixture of geonol and isointense antagonist, or mixture of geonol and low intensity antagonist were presented to the panelists (last four samples were randomized across panelists). The panelists were asked to familiarize themselves with the earthy/moss odor quality from the REF jar first, then rate the pleasantness, earthy/moss odor intensity and overall odor intensity of the next four samples on a 0-10 linear scale. The inter-stimulus interval between the samples was two minutes to avoid adaptation.

Olfr740 = Olfr740 (Mus musculus, UniProt E9PV79); experiment: Indole antagonist dose-response, cAMP HTRF in HEK293T, vs indole EC80; format: cell-based; conditions: HEK-293T, Table 22, second listing of the same compounds; vs indole EC80; read-out: Olfr740 % Inhibition
Olfr740, sequence (E9PV79 entry or part of it): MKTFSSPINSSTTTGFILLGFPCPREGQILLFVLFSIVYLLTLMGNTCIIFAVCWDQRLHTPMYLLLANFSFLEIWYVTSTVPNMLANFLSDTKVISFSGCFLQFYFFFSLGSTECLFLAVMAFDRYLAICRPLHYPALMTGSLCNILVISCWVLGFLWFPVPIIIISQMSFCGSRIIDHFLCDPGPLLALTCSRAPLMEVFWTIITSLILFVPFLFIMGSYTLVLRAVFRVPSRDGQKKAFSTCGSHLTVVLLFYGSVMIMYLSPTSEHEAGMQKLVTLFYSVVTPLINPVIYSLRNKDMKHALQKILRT
Procedure: (§1) Using a cell-based assay, mouse receptor Olfr738, Olfr739, Olfr740, Olfr741, 0fr742, Olfr743, Olfr744, Olfr746, Olfr748 and Olfr749 were tested in an HEK293T cell line wherein the endogenous RTP1 gene has been activated and the odorant receptor chaperone was expressed (described in WO2016201153A1). The receptor genes were tagged with a Flag-Rho tag combination. Receptor genes were co-transfected with the canonical olfactory human G-protein alpha subunit Golf gene. Co-expression of the human Golf activates the Gs transduction pathway that leads to an internal cAMP increase upon binding to the appropriate ligand (indole here). Odorant-induced activity was detected by measuring the cAMP increase in the cytosol using an HTRF based kit (CisBio, cAMP dynamic 2 kit, cat. 62AM4PEJ).

Olfr741 = Olfr741 (Mus musculus, UniProt L7N1Y5); experiment: as above; format: cell-based; conditions: Table 22, second listing of the same compounds
Olfr741, sequence (L7N1Y5 entry or part of it): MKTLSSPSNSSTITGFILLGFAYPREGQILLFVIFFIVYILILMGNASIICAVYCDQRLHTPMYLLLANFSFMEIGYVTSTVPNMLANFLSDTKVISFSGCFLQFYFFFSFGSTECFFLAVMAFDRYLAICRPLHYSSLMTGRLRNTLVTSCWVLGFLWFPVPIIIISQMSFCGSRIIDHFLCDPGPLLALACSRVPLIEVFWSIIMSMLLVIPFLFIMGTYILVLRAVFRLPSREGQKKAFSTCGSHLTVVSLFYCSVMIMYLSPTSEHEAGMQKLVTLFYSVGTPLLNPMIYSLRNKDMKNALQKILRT
Procedure: as §1

Olfr738 = Olfr738 (Mus musculus, UniProt L7N1X7); experiment: as above; format: cell-based; conditions: Table 22, second listing of the same compounds; vs indole EC80
Olfr738, sequence (L7N1X7 entry or part of it): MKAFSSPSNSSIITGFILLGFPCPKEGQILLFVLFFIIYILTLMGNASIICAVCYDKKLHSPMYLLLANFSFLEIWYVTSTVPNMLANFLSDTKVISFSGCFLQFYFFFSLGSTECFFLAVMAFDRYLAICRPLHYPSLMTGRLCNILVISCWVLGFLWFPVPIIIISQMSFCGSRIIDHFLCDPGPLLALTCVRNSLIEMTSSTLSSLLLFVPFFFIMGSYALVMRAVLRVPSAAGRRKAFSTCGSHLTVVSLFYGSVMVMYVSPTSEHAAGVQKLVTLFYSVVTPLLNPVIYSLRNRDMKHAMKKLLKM
Procedure: as §1

Olfr742 = Olfr742 (Mus musculus, UniProt A2RTP5); experiment: as above; format: cell-based; conditions: HEK-293T, Table 22, second listing of the same compounds; vs indole EC80; read-out: Olfr742 % Inhibition
Olfr742, sequence (A2RTP5 entry or part of it): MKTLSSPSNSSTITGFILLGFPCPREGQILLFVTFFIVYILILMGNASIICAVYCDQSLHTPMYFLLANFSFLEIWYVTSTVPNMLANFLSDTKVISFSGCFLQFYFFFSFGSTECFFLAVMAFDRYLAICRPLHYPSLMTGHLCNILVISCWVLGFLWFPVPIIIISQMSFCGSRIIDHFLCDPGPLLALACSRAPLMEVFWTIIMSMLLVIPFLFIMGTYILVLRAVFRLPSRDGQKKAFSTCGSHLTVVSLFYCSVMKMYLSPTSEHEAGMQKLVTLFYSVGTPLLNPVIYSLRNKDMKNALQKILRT
Procedure: as §1

Olfr739 = Olfr739 (Mus musculus, UniProt E9Q1P0); experiment: as above; format: cell-based; conditions: Table 22, second listing of the same compounds
Olfr739, sequence (E9Q1P0 entry or part of it): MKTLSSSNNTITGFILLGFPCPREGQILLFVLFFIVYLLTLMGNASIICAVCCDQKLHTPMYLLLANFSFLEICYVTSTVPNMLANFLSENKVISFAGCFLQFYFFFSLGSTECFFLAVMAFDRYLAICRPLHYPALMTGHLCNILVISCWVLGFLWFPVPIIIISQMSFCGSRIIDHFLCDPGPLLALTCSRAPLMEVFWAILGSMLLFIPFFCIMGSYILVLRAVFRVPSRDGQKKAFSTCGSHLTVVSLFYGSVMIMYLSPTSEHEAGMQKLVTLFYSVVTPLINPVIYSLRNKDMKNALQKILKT
Procedure: as §1, with “Functional dose-response experiments were performed to identify compounds capable of antagonizing indole-sensitive receptors previously identified (U.S. Pat. No. 9,914,760 B2). Using” for “Using”, “62AM4PEJ). The receptors were exposed to binary mixtures of increasing concentrations of the test compounds in the presence of a potent activation concentration of indole (EC80) for each receptor. […] All the compounds listed decreased the indole induced activity of at least one receptor.” for “62AM4PEJ).”

[6] = target: T1, OR51E1 olfactory receptor (Homo sapiens, UniProt Q8TCB6); experiment: Butyric acid olfactory receptor antagonist cell-based dose-response vs butyric acid EC80; conditions: butyric acid at EC80; Table 5
T1 construct: expressed in transfected cells
T1 sequence (Q8TCB6 1-318): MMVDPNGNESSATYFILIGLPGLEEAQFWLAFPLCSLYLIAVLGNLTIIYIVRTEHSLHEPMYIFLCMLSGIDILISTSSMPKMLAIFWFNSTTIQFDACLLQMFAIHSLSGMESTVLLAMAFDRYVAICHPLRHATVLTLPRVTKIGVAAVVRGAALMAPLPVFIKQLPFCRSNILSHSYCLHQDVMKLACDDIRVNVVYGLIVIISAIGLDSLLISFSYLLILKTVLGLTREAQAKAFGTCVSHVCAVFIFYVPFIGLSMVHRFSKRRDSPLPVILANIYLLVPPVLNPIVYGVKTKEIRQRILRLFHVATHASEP

[7] = tested on: 1-octen-3-ol receptors OR2W1, Olfr93, Olfr120, Olfr398; experiment: Antagonists of 1-octen-3-ol receptors (Example 11); format: cell-based, mouse and human; parameters: Inhibition(%): concentration or dose not given beside the values; conditions: Table 19
[8] = tested on: geonol receptors Olfr339, Olfr1487, Olfr1A1, OR11A1, Olfr96; experiment: Antagonists of geonol receptors (Example 11); format: cell-based, mouse and human; parameters: Inhibition(%): concentration or dose not given beside the values; conditions: Table 18
[9] = Low Dilution Test Compound + 1-octen-3-ol (0.15%)
[10] = Medium Dilution Test Compound + 1-octen-3-ol (0.15%)
[11] = Low Dilution Test Compound + Geonol (0.1%)
[12] = Medium Dilution Test Compound + Geonol (0.1%)

Row | IC50 [1] | Compound | % Inhibition [1] | % Mushroom/Earthy/Fungal Odor [3] | % Earthy/Moss Odor [4] | % Remaining in human sensory tests [5] | further results
1 | 81 µM | 1,4,8-trimethyl-13-oxabicyclo[10.1.0]trideca-4,8-diene; 1,5,8-trimethyl-13-oxabicyclo[10.1.0]trideca-4,8-diene | 50% | 30.20% | 43.30% | 85% | IC50 [2]: 266 µM; % Inhibition [2]: 70.92%; % Mushroom/Earthy/Fungal Odor Remaining [3, 9]: 93.80%; % Mushroom/Earthy/Fungal Odor Remaining [3, 10]: 79.50%; % Earthy/Moss Odor Remaining [4, 11]: 92.00%; % Earthy/Moss Odor Remaining [4, 12]: 91.50%
2 | – | 3-methyl-4-(2,6,6-trimethylcyclohex-2-en-1-yl)but-3-en-2-one; 1-(2,6,6-trimethylcyclohex-2-en-1-yl)pent-1-en-3-one | – | 20.00% | 29.40% | 38* % | % Mushroom/Earthy/Fungal Odor Remaining [3, 9]: 75.80%; % Mushroom/Earthy/Fungal Odor Remaining [3, 10]: 53.50%; % Earthy/Moss Odor Remaining [4, 11]: 75.80%; % Earthy/Moss Odor Remaining [4, 12]: 56.20%
3 | – | CC1(C)CCCC2(C)CC(=O)CCC12 (racemic) | – | – | – | – | Emax (Olfr740): 81.4%; IC50 (Olfr741): 106 µM; Olfr741 % Inhibition (Olfr741): 65.60%; Olfr738 % Inhibition (Olfr738): 123.10%; Emax (Olfr742): 97%; Olfr739 % Inhibition (Olfr739): 107.89%
4 | 301 µM | CC=CC(=O)C1C(C)C=CCC1(C)C (stereo not drawn) [1-(2,6,6-trimethyl-1-cyclohex-3-enyl)but-2-en-1-one] | 10% | 24.00% | 31.80% | 66* % | IC50 [6]: 210 µM
5 | – | CC1=CC(C)C(C=O)CC1 (stereo not drawn) [2,4-dimethylcyclohex-3-enecarbaldehyde] | – | – | – | 45* % | IC50 [2]: 18.8 µM; % Inhibition [2]: 107.99%
6 | – | CC(C)=CCCC(C)=CC=O [3,7-dimethylocta-2,6-dienal] | – | 22.30% | 27.60% | 42* % | –
7 | – | CC(=O)C=CC1=C(C)CCCC1(C)C [4-(2,6,6-trimethylcyclohexen-1-yl)but-3-en-2-one] | – | – | 41.80% | 43* % | IC50 [7]: 269 µM; Inhibition(%) [7]: 66%; IC50 [8]: 289 µM; Inhibition(%) [8]: 51%
8 | 555 µM | CCCCCCc1ccc(C)nc1 [5-hexyl-2-methylpyridine 10% Citr, 5-hexyl-2-methylpyridine] | – | – | 46.40% | 37% | –
9 | 133 µM | CC(=O)CCC=C(C)CCC=C(C)C [6,10-dimethylundeca-5,9-dien-2-one] | 50% | – | 52.80% | 45* % | –
10 | – | CC(=O)OC(c1ccccc1)C(Cl)(Cl)Cl (stereo not drawn) [(2,2,2-trichloro-1-phenylethyl) acetate] | – | 30.00% | 38.60% | 61% | –
11 | – | Cc1ccc2c(c1)CC(C)(CO)C2 (stereo not drawn) [(2,5-dimethyl-1,3-dihydroinden-2-yl)methanol] | – | 36.30% | 41.70% | 37* % | –
12 | 111 µM | CC=Cc1ccc(OCC)c(O)c1 [Compound 2-ethoxy-5-prop-1-enylphenol, 2-ethoxy-5-prop-1-enylphenol] | 33% | 23.20% | 27.10% | 34* % | –
13 | – | CCCCCC1CCCC1=O (stereo not drawn) [Compound 2-pentylcyclopentan-1-one, 2-pentylcyclopentan-1-one] | – | – | 40.90% | 78% | –
14 | 61 µM | O=C1CCC=CCCCCCCCCCC1 [cyclopentadec-4-en-1-one] | 45% | 25.80% | 49.90% | 47% | IC50 [7]: 57.8 µM; Inhibition(%) [7]: 130%
15 | 156 µM | CCC=CCCC=CC=O [nona-2,6-dienal] | 80% | – | 65.40% | 67% | –
16 | – | CC(=O)OCCc1ccccc1 [phenyl ethyl acetate] | – | – | 35.30% | 47* % | % Earthy/Moss Odor Remaining [4, 11]: 97.10%; % Earthy/Moss Odor Remaining [4, 12]: 65.80%
17 | 107 µM | Cc1ccc(C(C)C)c(O)c1 [thymol, 5-Methyl-2-(propan-2-yl)phenol] | 100% | – | 54.70% | 53% | –

Row | Compound | IC50 [1] | % Inhibition [1] | % Mushroom/Earthy/Fungal Odor [3] | % Earthy/Moss Odor [4] | % Remaining in human sensory tests [5] | further results
18 | CC(C)(C)c1ccccc1O [2-tertbutyl phenol] | 88 µM | 100% | – | 41.30% | 46* % | IC50 [2]: 37 µM; % Inhibition [2]: 100.34%
